# Structures can show the parent of a compound that is named as a salt.
# Legend:
# alpha-1-receptor = target: T1, alpha-1-receptor (Rattus norvegicus, UniProt P15823); experiment: Radioligand binding, alpha-1 adrenoceptor ([3H]-pyrazosin, rat liver homogenates)
# T1 sequence (P15823 1-515): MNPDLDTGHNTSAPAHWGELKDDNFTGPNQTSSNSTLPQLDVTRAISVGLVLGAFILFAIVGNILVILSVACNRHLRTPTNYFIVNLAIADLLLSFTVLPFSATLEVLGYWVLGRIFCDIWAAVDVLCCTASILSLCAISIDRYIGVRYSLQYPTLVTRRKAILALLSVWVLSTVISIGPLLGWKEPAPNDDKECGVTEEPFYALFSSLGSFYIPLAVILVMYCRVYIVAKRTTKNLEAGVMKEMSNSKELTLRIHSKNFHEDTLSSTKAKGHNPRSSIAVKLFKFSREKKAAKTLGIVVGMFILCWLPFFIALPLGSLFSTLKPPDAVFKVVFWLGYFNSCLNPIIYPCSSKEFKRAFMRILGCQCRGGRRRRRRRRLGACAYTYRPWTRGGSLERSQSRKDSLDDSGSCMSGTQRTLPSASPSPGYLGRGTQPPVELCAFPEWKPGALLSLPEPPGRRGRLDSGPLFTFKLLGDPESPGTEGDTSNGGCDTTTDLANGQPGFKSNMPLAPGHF
# alpha-2-receptor = experiment: Radioligand binding, alpha-2 adrenoceptor ([3H]-rauwolscine, rat cerebral cortices)
# [1] = tested on: normal eyes of rabbits (intraocular pressure); experiment: Antiglaucoma activity: intraocular pressure after instillation into normal eyes of rabbits; format: in vivo, male, albino New Zealand rabbits
# Procedure: In order to evaluate antiglaucoma activity, the test compounds were dissolved in the vehicle, a 0.2% aqueous solution of hydroxymethylcellulose at various concentrations such as 0.03%, 0.1%, or 0.3%. Comparisons were made to the reference standard, pilocarpine hydrochloride which was dissolved in the vehicle at a concentration of 0.5%. Control treatment was a volume dose of vehicle.
# Male, albino New Zealand rabbits (Scientific Animal Farms and/or Kuiper's Rabbit Ranch) weighing 2.06-2.5 kg were used in the study. Intraocular pressures were obtained in the normal eyes of the animals using a Bausch and Lomb Applamatic Tonometer. Three separate sessions provided the baseline pressures for each eye. The test compound or vehicle (0.1 mL) was instilled into the eyes of 6 different rabbits according to a randomized dosing schedule. Intraocular pressures were taken at 5, 15, 30, 45, 60, 90 and 120 minutes after instillation of the test compounds.
# Statistical treatment was by one-way analysis of variance. Results are shown (Table 1) for a representative sample of the compounds claimed.
# [2] = 5 minutes after administration, 0.3% solution, 0.1 mL instilled
# [3] = 15 minutes after administration, 0.3% solution, 0.1 mL instilled
# [4] = 90 minutes after administration, 0.3% solution, 0.1 mL instilled
# [5] = 120 minutes after administration, 0.3% solution, 0.1 mL instilled
Compound,Ki (alpha-1-receptor) [nM],Ki (alpha-2-receptor) [nM],"Percent Change in IOP vs Baseline [1, 2] [%]","Percent Change in IOP vs Baseline [1, 3] [%]","Percent Change in IOP vs Baseline [1, 4] [%]","Percent Change in IOP vs Baseline [1, 5]",other results
"COc1ccc2c(c1)CCN(CCCc1cccs1)C2.Cl [Example 2, 1,2,3,4-Tetrahydro-6-methoxy-N-3-(2-thienyl)propylisoquinoline hydrochloride]",150,4.3,-50,-41,-13,+8%,–
"COc1ccc2c(c1)CCN(CCCc1cccc(F)c1)C2 [Example 5, 1,2,3,4-Tetrahydro-6-methoxy-N-3-(m-fluorophenyl)propyl isoquinoline hydrochloride]",206,4.6,–,–,–,–,–
"COc1ccc2c(c1)CCN(CCCc1ccco1)C2 [Example 6, 1,2,3,4-Tetrahydro-6-methoxy-N-3-(2-furyl)propylisoquinoline hydrochloride]",154,2.2,–,–,–,–,–
"COc1ccc2c(c1)CCN(CCCc1ccccc1)C2 [Example 7, 1,2,3,4-Tetrahydro-6-methoxy-N-(3-phenylpropyl)isoquinoline hydrochloride]",217,5.9,–,–,–,–,–
"COc1cccc(CCCN2CCc3cc(OC)ccc3C2)c1 [Example 8, 1,2,3,4-Tetrahydro-6-methoxy-N-3-(3-methoxyphenyl)propyl isoquinoline hydrochloride]",174,10.7,–,–,–,–,–
"Cc1ccc2c(c1)CCN(CCCc1ccccc1)C2 [Example 13, 1,2,3,4-Tetrahydro-6-methyl-N-(3-(phenylpropylisoquinoline Hydrochloride]",114,5.6,–,–,–,–,–
"CC(C)(C)C(=O)Oc1ccc2c(c1)CCN(CCCc1cccs1)C2.CS(=O)(=O)O [Example 16, 1,2,3,4-Tetrahydro-6-trimethylacetoxy-N-3-(2-thienyl)propylisoquinoline methane sulfonate]",–,–,-11,-12,-36,-4%,–
"CN(C)C(=O)Oc1ccc2c(c1)CCN(CCCc1cccs1)C2.CS(=O)(=O)O [Example 18, 1,2,3,4-Tetrahydro-6-((dimethylamino)carbonyl)oxy-2-N-(3-(2-thienyl)propyl)isoquinoline methane sulfonate]",–,–,-38,-26,-48,-12%,–
"CC[C@@H]1C(=O)OC[C@@H]1Cc1cncn1C [Pilocarpine, pilocarpine hydrochloride, reference compound]",–,–,–,–,–,–,"Percent Change in IOP vs Baseline ([1]; 15 minutes after administration, 0.5% solution (reference standard)): -22%; Percent Change in IOP vs Baseline ([1]; 90 minutes after administration, 0.5% solution (reference standard)): -20%; Percent Change in IOP vs Baseline ([1]; 120 minutes after administration, 0.5% solution (reference standard)): -33%"
